Source: PubChem BioAssay (NCI)
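Abbreviation: GI50, concentration required for 50% inhibition of growth. At the TGI there is no net growth.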

Legend:
Test in all cases: NCI tumour cell line growth inhibition, 384-well format
NCI-H460 NSCLC = tested on: NCI-H460 NSCLC
UO-31 renal = tested on: UO-31 renal
OVCAR-5 ovarian = tested on: OVCAR-5 ovarian
NCI/ADR-RES ovarian = tested on: NCI/ADR-RES ovarian
SR leukemia = tested on: SR leukemia
786-0 renal = tested on: 786-0 renal
HCT-15 colon = tested on: HCT-15 colon
RXF 393 renal = tested on: RXF 393 renal
DU-145 prostate = tested on: DU-145 prostate
OVCAR-3 ovarian = tested on: OVCAR-3 ovarian
KM12 colon = tested on: KM12 colon
SK-MEL-5 melanoma = tested on: SK-MEL-5 melanoma
LOX IMVI melanoma = tested on: LOX IMVI melanoma
SF-268 CNS = tested on: SF-268 CNS
SW-620 colon = tested on: SW-620 colon
CAKI-1 renal = tested on: CAKI-1 renal
UACC-257 melanoma = tested on: UACC-257 melanoma
MOLT-4 leukemia = tested on: MOLT-4 leukemia
NCI-H322M lung = tested on: NCI-H322M lung
OVCAR-8 ovarian = tested on: OVCAR-8 ovarian
HOP-92 NSCLC = tested on: HOP-92 NSCLC
M14 melanoma = tested on: M14 melanoma
SNB-75 CNS = tested on: SNB-75 CNS
SF-295 CNS = tested on: SF-295 CNS
K-562 leukemia = tested on: K-562 leukemia
ACHN renal = tested on: ACHN renal
MDA-MB-435 melanoma = tested on: MDA-MB-435 melanoma
MDA-MB-231 breast = tested on: MDA-MB-231 breast
CCRF-CEM leukemia = tested on: CCRF-CEM leukemia
NCI-H23 lung = tested on: NCI-H23 lung
SN12C renal = tested on: SN12C renal
NCI-H522 lung = tested on: NCI-H522 lung
HT29 colon = tested on: HT29 colon
MALME-3M melanoma = tested on: MALME-3M melanoma
COLO 205 colon = tested on: COLO 205 colon
TK-10 renal = tested on: TK-10 renal
MCF7 breast = tested on: MCF7 breast
HL-60(TB) leukemia = tested on: HL-60(TB) leukemia
SF-539 CNS = tested on: SF-539 CNS
PC-3 prostate = tested on: PC-3 prostate
U251 glioblastoma = tested on: U251 glioblastoma
HOP-62 NSCLC = tested on: HOP-62 NSCLC
NCI-H226 lung = tested on: NCI-H226 lung
EKVX NSCLC = tested on: EKVX NSCLC
UACC-62 melanoma = tested on: UACC-62 melanoma
MDA-MB-468 breast = tested on: MDA-MB-468 breast
BT-549 breast = tested on: BT-549 breast
A549 NSCLC = tested on: A549 NSCLC
SNB-19 CNS = tested on: SNB-19 CNS
RPMI-8226 leukemia = tested on: RPMI-8226 leukemia
SK-MEL-28 melanoma = tested on: SK-MEL-28 melanoma
SK-OV-3 ovarian = tested on: SK-OV-3 ovarian
T-47D breast = tested on: T-47D breast
IGROV1 ovarian = tested on: IGROV1 ovarian
HCC-2998 colon = tested on: HCC-2998 colon
HS 578T breast = tested on: HS 578T breast
A498 renal = tested on: A498 renal
OVCAR-4 ovarian = tested on: OVCAR-4 ovarian

What does the source list for `C=CC(=O)Nc1cccc(Oc2nc(Nc3ccc(N4CCN(C)CC4)cc3OC)ncc2Cl)c1`?
GI50 (NCI-H460 NSCLC): 1640 nM; TGI (NCI-H460 NSCLC): 3020 nM; GI50 (UO-31 renal): 1350 nM; TGI (UO-31 renal): 2660 nM; GI50 (OVCAR-5 ovarian): 1550 nM; TGI (OVCAR-5 ovarian): 3390 nM; GI50 (NCI/ADR-RES ovarian): 1510 nM; TGI (NCI/ADR-RES ovarian): 2850 nM; GI50 (SR leukemia): 1560 nM; TGI (SR leukemia): 2890 nM; GI50 ([…]-0 renal): 1180 nM; TGI (786-0 renal): 2420 nM; GI50 (HCT-15 colon): 1340 nM; TGI (HCT-15 colon): 2640 nM; GI50 (RXF 393 renal): 1290 nM; TGI (RXF 393 renal): 2570 nM; GI50 (DU-145 prostate): 1320 nM; TGI (DU-145 prostate): 3080 nM; GI50 (OVCAR-3 ovarian): 1250 nM; TGI (OVCAR-3 ovarian): 2520 nM; GI50 (KM12 colon): 1700 nM; TGI (KM12 colon): 3090 nM; GI50 (SK-MEL-5 melanoma): 1570 nM; TGI (SK-MEL-5 melanoma): 2920 nM; GI50 (LOX IMVI melanoma): 1660 nM; TGI (LOX IMVI melanoma): 3030 nM; GI50 (SF-268 CNS): 1460 nM; TGI (SF-268 CNS): 2790 nM; GI50 (SW-620 colon): 1720 nM; TGI (SW-620 colon): 3110 nM; GI50 (CAKI-1 renal): 765 nM; TGI (CAKI-1 renal): 2050 nM; GI50 (UACC-257 melanoma): 1210 nM; TGI (UACC-257 melanoma): 2460 nM; GI50 (MOLT-4 leukemia): 1500 nM; TGI (MOLT-4 leukemia): 2820 nM; GI50 (NCI-H322M lung): 354 nM; TGI (NCI-H322M lung): 1670 nM; GI50 (OVCAR-8 ovarian): 1440 nM; TGI (OVCAR-8 ovarian): 2760 nM; GI50 (HOP-92 NSCLC): 1100 nM; TGI (HOP-92 NSCLC): 2340 nM; GI50 (M14 melanoma): 1770 nM; TGI (M14 melanoma): 3160 nM; GI50 (SNB-75 CNS): 1440 nM; TGI (SNB-75 CNS): 2890 nM; GI50 (SF-295 CNS): 1870 nM; TGI (SF-295 CNS): 3450 nM; GI50 (K-562 leukemia): 1630 nM; TGI (K-562 leukemia): 3000 nM; GI50 (ACHN renal): 440 nM; TGI (ACHN renal): 1710 nM; GI50 (MDA-MB-435 melanoma): 1710 nM; TGI (MDA-MB-435 melanoma): 3100 nM; GI50 (MDA-MB-231 breast): 1560 nM; TGI (MDA-MB-231 breast): 2950 nM; GI50 (CCRF-CEM leukemia): 1420 nM; TGI (CCRF-CEM leukemia): 2720 nM; GI50 (NCI-H23 lung): 1830 nM; TGI (NCI-H23 lung): 3860 nM; GI50 (SN12C renal): 1090 nM; TGI (SN12C renal): 2610 nM; GI50 (NCI-H522 lung): 257 nM; TGI (NCI-H522 lung): 1250 nM; GI50 (HT29 colon): 1650 nM; TGI (HT29 colon): 3020 nM; GI50 (MALME-3M melanoma): 1530 nM; TGI (MALME-3M melanoma): 2860 nM; GI50 (COLO 205 colon): 1720 nM; TGI (COLO 205 colon): 3100 nM; GI50 (TK-10 renal): 788 nM; TGI (TK-10 renal): 2060 nM; GI50 (MCF7 breast): 1140 nM; TGI (MCF7 breast): 2360 nM; GI50 (HL-60(TB) leukemia): 1070 nM; TGI (HL-60(TB) leukemia): 2260 nM; GI50 (SF-539 CNS): 1540 nM; TGI (SF-539 CNS): 2880 nM; GI50 (PC-3 prostate): 1700 nM; TGI (PC-3 prostate): 3140 nM; GI50 (U251 glioblastoma): 1690 nM; TGI (U251 glioblastoma): 3090 nM; GI50 (HOP-62 NSCLC): 1800 nM; TGI (HOP-62 NSCLC): 3510 nM; GI50 (NCI-H226 lung): 1130 nM; TGI (NCI-H226 lung): 2520 nM; GI50 (EKVX NSCLC): 374 nM; TGI (EKVX NSCLC): 1650 nM; GI50 (UACC-62 melanoma): 1560 nM; TGI (UACC-62 melanoma): 2900 nM; GI50 (MDA-MB-468 breast): 16.7 nM; TGI (MDA-MB-468 breast): 90.9 nM; GI50 (BT-549 breast): 1300 nM; TGI (BT-549 breast): 2590 nM; GI50 (A549 NSCLC): 1230 nM; TGI (A549 NSCLC): 2480 nM; GI50 (SNB-19 CNS): 2600 nM; TGI (SNB-19 CNS): 8340 nM; GI50 (RPMI-8226 leukemia): 1160 nM; TGI (RPMI-8226 leukemia): 2380 nM; GI50 (SK-MEL-28 melanoma): 1670 nM; TGI (SK-MEL-28 melanoma): 3030 nM; GI50 (SK-OV-3 ovarian): 1040 nM; TGI (SK-OV-3 ovarian): 2230 nM; GI50 (T-47D breast): 1110 nM; TGI (T-47D breast): 2320 nM; GI50 (IGROV1 ovarian): 754 nM; TGI (IGROV1 ovarian): 2040 nM; GI50 (HCC-2998 colon): 1570 nM; TGI (HCC-2998 colon): 2930 nM; GI50 (HS 578T breast): 1370 nM; TGI (HS 578T breast): 2670 nM; GI50 (A498 renal): 517 nM; TGI (A498 renal): 1890 nM; GI50 (OVCAR-4 ovarian): 1540 nM; TGI (OVCAR-4 ovarian): 4150 nM
